Data from PubChem BioAssay AID248 (DTP/NCI, 2004).
Values joined by “and” are separate entries in the source; they are usually repeats but may differ in a detail not shown here. Equal values may be shown once. Inconclusive results and toxic doses are left out.

Test system: L1210 leukemia ip in BDF1 mice, survival T/C
Test: NCI In Vivo Anticancer Drug Screen. Data for tumor model L1210 Leukemia (intraperitoneal) in B6D2F1 (BDF1) mice
Conditions: endpoint: mean survival time, higher = longer survival
Method in brief: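 Tumor was transplanted into mice, which were then dosed with test compound or vehicle alone. Survival was recorded for each group, and the treated figure was expressed relative to the control figure.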

[1] = dose: 50.0 mg/kg/injection, schedule: Q04DX003 (ip), vehicle: saline with Tween-80
[2] = dose: 100.0 mg/kg/injection, schedule: Q04DX003 (ip), vehicle: saline with Tween-80
[3] = dose: 200.0 mg/kg/injection, schedule: Q04DX003 (ip), vehicle: saline with Tween-80
[4] = dose: 400.0 mg/kg/injection, schedule: Q04DX003 (ip), vehicle: saline with Tween-80
[5] = dose: 100.0 mg/kg/injection, schedule: Q01DX009 (ip), vehicle: saline with Tween-80
[6] = dose: 100.0 mg/kg/injection, schedule: Q04DX002 (ip), vehicle: Klucel (hydroxypropylcellulose) (HPC)
[7] = dose: 200.0 mg/kg/injection, schedule: Q04DX002 (ip), vehicle: Klucel (hydroxypropylcellulose) (HPC)
[8] = dose: 400.0 mg/kg/injection, schedule: Q04DX002 (ip), vehicle: Klucel (hydroxypropylcellulose) (HPC)
[9] = dose: 100.0 mg/kg/injection, schedule: Q04DX003 (ip), vehicle: saline
[10] = dose: 200.0 mg/kg/injection, schedule: Q04DX003 (ip), vehicle: saline
[11] = dose: 400.0 mg/kg/injection, schedule: Q04DX003 (ip), vehicle: saline

## O=C1CSC(=S)N1c1ccc(Cl)c(Cl)c1
[1]
  T/C: 96 % of control
[2]
  T/C: 101 % of control
[3]
  T/C: 104 % of control

## CC(C)c1ccc(/C=N/NC(=O)c2ccc[n+](C)c2)cc1
dose: 12.5 mg/kg/injection, schedule: Q01DX009 (ip), vehicle: saline
  T/C: 94 % of control
dose: 25.0 mg/kg/injection, schedule: Q01DX009 (ip), vehicle: saline
  T/C: 98 % of control
dose: 50.0 mg/kg/injection, schedule: Q01DX009 (ip), vehicle: saline
  T/C: 112 % of control and 91 % of control

## Nc1ccc2[nH]ncc2c1
[2]
  T/C: 102 % of control
[3]
  T/C: 102 % of control
[4]
  T/C: 110 % of control

## ClCc1ccc(CCl)c(Cl)c1
dose: 25.0 mg/kg/injection, schedule: Q04DX003 (ip), vehicle: Klucel (hydroxypropylcellulose) (HPC)
  T/C: 86 % of control
dose: 50.0 mg/kg/injection, schedule: Q04DX003 (ip), vehicle: Klucel (hydroxypropylcellulose) (HPC)
  T/C: 97 % of control
dose: 100.0 mg/kg/injection, schedule: Q04DX003 (ip), vehicle: Klucel (hydroxypropylcellulose) (HPC)
  T/C: 94 % of control

## CCOC(=O)c1cnn2c(SC)ncnc12
dose: 25.0 mg/kg/injection, schedule: Q04DX003 (ip), vehicle: saline with Tween-80
  T/C: 102 % of control
dose: 50.0 mg/kg/injection, schedule: Q01DX009 (ip), vehicle: saline with Tween-80
  T/C: 102 % of control
[1]
  T/C: 104 % of control
[5]
  T/C: 91 % of control
[2]
  T/C: 107 % of control

## O=Cc1sc2cc[nH]c2c1O
[2]
  T/C: 100 % of control
[3]
  T/C: 97 % of control
[4]
  T/C: 94 % of control

## CC(=O)Nc1ccc(C(=O)Nc2ccc(C3=NCCN3)cc2)cc1C(=O)Nc1ccc(C2=NCCN2)cc1
dose: 62.0 mg/kg/injection, schedule: Q01DX015 (ip), vehicle: carboxymethylcellulose (CMC)
  T/C: 317 % of control
dose: 250.0 mg/kg/injection, schedule: Q01DX015 (ip), vehicle: carboxymethylcellulose (CMC)
  T/C: 158 % of control

## CCNC(=O)Nc1ccc(N(CC)CC)cc1
[5]
  T/C: 93 % of control
[2]
  T/C: 103 % of control
dose: 200.0 mg/kg/injection, schedule: Q01DX009 (ip), vehicle: saline with Tween-80
  T/C: 87 % of control
[3]
  T/C: 96 % of control
dose: 400.0 mg/kg/injection, schedule: Q01DX009 (ip), vehicle: saline with Tween-80
  T/C: 98 % of control
[4]
  T/C: 96 % of control

## N#Cc1ccc(-c2ccccc2)cc1
dose: 50.0 mg/kg/injection, schedule: Q04DX002 (ip), vehicle: other
  T/C: 103 % of control
dose: 100.0 mg/kg/injection, schedule: Q04DX002 (ip), vehicle: other
  T/C: 95 % of control
dose: 200.0 mg/kg/injection, schedule: Q04DX002 (ip), vehicle: other
  T/C: 117 % of control

## CCOP(=O)(OCC)Oc1cc(C)c(C#N)c(C)c1
dose: 5.0 mg/kg/injection, schedule: Q01DX001 (ip), vehicle: saline
  T/C: 108 % of control
dose: 10.0 mg/kg/injection, schedule: Q01DX001 (ip), vehicle: saline
  T/C: 108 % of control
dose: 20.0 mg/kg/injection, schedule: Q01DX001 (ip), vehicle: saline
  T/C: 100 % of control
dose: 40.0 mg/kg/injection, schedule: Q01DX001 (ip), vehicle: saline
  T/C: 103 % of control

## COc1c(OC)c2c3c(c(-c4c(C)cc5c(C(C)C)c(OC)c(OC)c6c5c4OC6=O)c(C)cc3c1C(C)C)OC2=O
dose: 75.0 mg/kg/injection, schedule: Q04DX003 (ip), vehicle: Klucel (hydroxypropylcellulose) (HPC)
  T/C: 105 % of control
dose: 150.0 mg/kg/injection, schedule: Q04DX003 (ip), vehicle: Klucel (hydroxypropylcellulose) (HPC)
  T/C: 92 % of control
dose: 300.0 mg/kg/injection, schedule: Q04DX003 (ip), vehicle: Klucel (hydroxypropylcellulose) (HPC)
  T/C: 92 % of control

## COc1ccc(OC)c(NCCN2C(=O)c3ccccc3C2=O)c1
[6]
  T/C: 95 % of control
[7]
  T/C: 100 % of control
[8]
  T/C: 100 % of control

## O=[N+]([O-])c1ccc(CCCl)cc1
dose: 100.0 mg/kg/injection, schedule: Q04DX003 (ip), vehicle: acetone
  T/C: 102 % of control
dose: 200.0 mg/kg/injection, schedule: Q04DX003 (ip), vehicle: acetone
  T/C: 104 % of control
dose: 400.0 mg/kg/injection, schedule: Q04DX003 (ip), vehicle: acetone
  T/C: 92 % of control

## O=C(Nc1ccc([N+](=O)[O-])cn1)Nc1cc([N+](=O)[O-])ccc1F
dose: 100.0 mg/kg/injection, schedule: Q01DX001 (ip), vehicle: Klucel (hydroxypropylcellulose) (HPC)
  T/C: 93 % of control
dose: 100.0 mg/kg/injection, schedule: Q01DX009 (ip), vehicle: Klucel (hydroxypropylcellulose) (HPC)
  T/C: 94 % of control and 89 % of control
[6]
  T/C: 95 % of control and 102 % of control
dose: 200.0 mg/kg/injection, schedule: Q01DX001 (ip), vehicle: Klucel (hydroxypropylcellulose) (HPC)
  T/C: 100 % of control
dose: 200.0 mg/kg/injection, schedule: Q01DX009 (ip), vehicle: Klucel (hydroxypropylcellulose) (HPC)
  T/C: 94 % of control and 89 % of control
[7]
  T/C: 92 % of control and 102 % of control
dose: 200.0 mg/kg/injection, schedule: Q04DX003 (ip), vehicle: Klucel (hydroxypropylcellulose) (HPC)
  T/C: 87 % of control
dose: 400.0 mg/kg/injection, schedule: Q01DX001 (ip), vehicle: Klucel (hydroxypropylcellulose) (HPC)
  T/C: 94 % of control
dose: 400.0 mg/kg/injection, schedule: Q01DX009 (ip), vehicle: Klucel (hydroxypropylcellulose) (HPC)
  T/C: 100 % of control
[8]
  T/C: 94 % of control and 95 % of control
dose: 400.0 mg/kg/injection, schedule: Q04DX003 (ip), vehicle: Klucel (hydroxypropylcellulose) (HPC)
  T/C: 92 % of control

## S=C([S-])N1CCN(c2ccccc2)CC1.S=C([S-])N1CCN(c2ccccc2)CC1.[Zn]
[9]
  T/C: 89 % of control
[10]
  T/C: 95 % of control and 88 % of control
[11]
  T/C: 90 % of control

## C#CC1CC2C3CCC4=CC(=O)CCC4(C)C3CCC2(C)C1N(C)C (stereo not given)
dose: 50.0 mg/kg/injection, schedule: Q01DX001 (sc), vehicle: steriod suspending solution
  T/C: 98 % of control
dose: 100.0 mg/kg/injection, schedule: Q01DX001 (sc), vehicle: steriod suspending solution
  T/C: 104 % of control

## CCOC(CN1CCOCC1)c1ccccc1 (stereo not given)
dose: 50.0 mg/kg/injection, schedule: Q01DX001 (ip), vehicle: carboxymethylcellulose (CMC)
  T/C: 100 % of control
dose: 50.0 mg/kg/injection, schedule: Q01DX009 (ip), vehicle: carboxymethylcellulose (CMC)
  T/C: 93 % of control and 92 % of control
dose: 50.0 mg/kg/injection, schedule: Q04DX003 (ip), vehicle: carboxymethylcellulose (CMC)
  T/C: 102 % of control
dose: 100.0 mg/kg/injection, schedule: Q01DX001 (ip), vehicle: carboxymethylcellulose (CMC)
  T/C: 99 % of control
dose: 100.0 mg/kg/injection, schedule: Q01DX009 (ip), vehicle: carboxymethylcellulose (CMC)
  T/C: 109 % of control and 91 % of control
dose: 100.0 mg/kg/injection, schedule: Q04DX002 (ip), vehicle: carboxymethylcellulose (CMC)
  T/C: 103 % of control and 105 % of control
dose: 100.0 mg/kg/injection, schedule: Q04DX003 (ip), vehicle: carboxymethylcellulose (CMC)
  T/C: 107 % of control
dose: 200.0 mg/kg/injection, schedule: Q01DX001 (ip), vehicle: carboxymethylcellulose (CMC)
  T/C: 100 % of control
dose: 200.0 mg/kg/injection, schedule: Q01DX009 (ip), vehicle: carboxymethylcellulose (CMC)
  T/C: 106 % of control and 88 % of control
dose: 200.0 mg/kg/injection, schedule: Q04DX002 (ip), vehicle: carboxymethylcellulose (CMC)
  T/C: 106 % of control and 113 % of control
dose: 200.0 mg/kg/injection, schedule: Q04DX003 (ip), vehicle: carboxymethylcellulose (CMC)
  T/C: 104 % of control

## CCCCOP(=O)(OCCCC)C(O)CCC (stereo not given)
dose: 100.0 mg/kg/injection, schedule: Q01DX001 (ip), vehicle: saline with Tween-80
  T/C: 93 % of control
[2]
  T/C: 104 % of control
dose: 200.0 mg/kg/injection, schedule: Q01DX001 (ip), vehicle: saline with Tween-80
  T/C: 93 % of control
[3]
  T/C: 98 % of control

## O=C1NC(=O)C(c2ccc3c(c2)OCO3)N1 (stereo not given)
[2]
  T/C: 104 % of control
[3]
  T/C: 102 % of control
[4]
  T/C: 101 % of control

## O=C1C2=C(CCC2)c2ccccc21
dose: 100.0 mg/kg/injection, schedule: Q01DX001 (ip), vehicle: saline
  T/C: 103 % of control
dose: 200.0 mg/kg/injection, schedule: Q01DX001 (ip), vehicle: saline
  T/C: 96 % of control

## CCCCC(=O)NC1CCCCC1
dose: 75.0 mg/kg/injection, schedule: Q01DX001 (ip), vehicle: saline
  T/C: 101 % of control
dose: 150.0 mg/kg/injection, schedule: Q01DX001 (ip), vehicle: saline
  T/C: 95 % of control

## O=C1NC(=S)S/C1=C/c1ccco1
[6]
  T/C: 105 % of control
[7]
  T/C: 98 % of control
[8]
  T/C: 105 % of control

## OC1c2ccccc2-c2ccccc21
[9]
  T/C: 91 % of control
[10]
  T/C: 93 % of control
[11]
  T/C: 93 % of control

## CC(=O)C[n+]1ccccc1Br
dose: 62.0 mg/kg/injection, schedule: Q01DX015 (ip), vehicle: water
  T/C: 87 % of control
dose: 125.0 mg/kg/injection, schedule: Q01DX015 (ip), vehicle: water
  T/C: 100 % of control
